Reference: patent publication US7196105B2, “Treatment of human multiple myeloma by curcumin” (Research Development Foundation, priority 2002, dated 2007)
“Also recorded” adds a separate entry of the source.

Columns and labels:
[1] = system: multiple myeloma cell lines (U266, RPMI 8226, MM.1, MM.1R); assay: Growth/proliferation of all multiple myeloma cell lines tested (statement for all lines); format: cell-based, human; conditions: curcumin 10 μM
Description: The results are shown as the mean (±s. d.) cell count from triplicate cultures.

[2] = biological target: T1, IκB kinase (Homo sapiens, UniProt O14920+O15111); assay: In vitro kinase assay: IKK immunoprecipitated from untreated U266 cells, then treated with curcumin; format: biochemical; conditions: curcumin 30 min, GST-IκBα substrate
T1 construct: 200 μg cytoplasmic extracts were immunoprecipitated with 1 μg of anti-IKKa and IKKb antibodies each; endogenous in cells; host or cells: U266 human multiple myeloma cells (cytoplasmic extract, immunoprecipitate on protein A/G-Sepharose)
T1 sequence (O15111 whole entry): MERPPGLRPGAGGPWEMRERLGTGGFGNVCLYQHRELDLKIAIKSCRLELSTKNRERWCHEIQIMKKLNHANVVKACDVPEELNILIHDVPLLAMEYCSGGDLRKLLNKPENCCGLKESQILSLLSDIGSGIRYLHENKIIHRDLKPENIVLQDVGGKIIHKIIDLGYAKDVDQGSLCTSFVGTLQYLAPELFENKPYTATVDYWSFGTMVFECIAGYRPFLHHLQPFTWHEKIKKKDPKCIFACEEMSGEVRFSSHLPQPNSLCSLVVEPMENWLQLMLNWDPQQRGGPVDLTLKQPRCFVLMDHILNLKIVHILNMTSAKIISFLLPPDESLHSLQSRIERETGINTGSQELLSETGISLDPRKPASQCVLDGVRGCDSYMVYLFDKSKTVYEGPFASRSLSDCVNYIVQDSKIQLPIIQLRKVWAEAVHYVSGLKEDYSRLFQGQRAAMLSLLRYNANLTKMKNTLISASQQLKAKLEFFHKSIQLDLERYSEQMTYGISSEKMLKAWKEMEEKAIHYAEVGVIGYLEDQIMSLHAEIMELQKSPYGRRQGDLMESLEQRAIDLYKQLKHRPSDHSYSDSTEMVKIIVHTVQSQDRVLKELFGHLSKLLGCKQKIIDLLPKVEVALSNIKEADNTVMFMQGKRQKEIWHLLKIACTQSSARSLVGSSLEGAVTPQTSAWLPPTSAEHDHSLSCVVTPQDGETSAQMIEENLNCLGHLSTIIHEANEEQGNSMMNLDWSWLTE
T1 sequence (O14920 whole entry): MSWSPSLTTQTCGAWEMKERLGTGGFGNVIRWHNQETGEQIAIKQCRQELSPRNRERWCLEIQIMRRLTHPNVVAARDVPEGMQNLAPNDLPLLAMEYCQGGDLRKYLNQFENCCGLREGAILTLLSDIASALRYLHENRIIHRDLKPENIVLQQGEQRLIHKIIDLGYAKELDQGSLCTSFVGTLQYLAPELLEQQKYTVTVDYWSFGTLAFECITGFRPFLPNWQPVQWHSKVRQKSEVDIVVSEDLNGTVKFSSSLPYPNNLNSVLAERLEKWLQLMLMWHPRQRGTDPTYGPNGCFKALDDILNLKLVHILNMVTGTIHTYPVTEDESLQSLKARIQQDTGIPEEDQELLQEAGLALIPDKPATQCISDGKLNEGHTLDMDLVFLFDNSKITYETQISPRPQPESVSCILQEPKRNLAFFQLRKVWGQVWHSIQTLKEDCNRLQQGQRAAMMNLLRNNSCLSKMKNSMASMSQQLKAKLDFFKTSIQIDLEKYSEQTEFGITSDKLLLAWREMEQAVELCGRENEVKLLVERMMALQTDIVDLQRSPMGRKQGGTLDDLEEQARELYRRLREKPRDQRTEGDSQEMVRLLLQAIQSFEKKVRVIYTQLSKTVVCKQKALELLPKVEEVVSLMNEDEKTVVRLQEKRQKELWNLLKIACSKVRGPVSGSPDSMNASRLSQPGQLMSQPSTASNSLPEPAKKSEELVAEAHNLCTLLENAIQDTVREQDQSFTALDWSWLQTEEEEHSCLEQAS
T1 sequence (Q9Y6K9 whole entry partner): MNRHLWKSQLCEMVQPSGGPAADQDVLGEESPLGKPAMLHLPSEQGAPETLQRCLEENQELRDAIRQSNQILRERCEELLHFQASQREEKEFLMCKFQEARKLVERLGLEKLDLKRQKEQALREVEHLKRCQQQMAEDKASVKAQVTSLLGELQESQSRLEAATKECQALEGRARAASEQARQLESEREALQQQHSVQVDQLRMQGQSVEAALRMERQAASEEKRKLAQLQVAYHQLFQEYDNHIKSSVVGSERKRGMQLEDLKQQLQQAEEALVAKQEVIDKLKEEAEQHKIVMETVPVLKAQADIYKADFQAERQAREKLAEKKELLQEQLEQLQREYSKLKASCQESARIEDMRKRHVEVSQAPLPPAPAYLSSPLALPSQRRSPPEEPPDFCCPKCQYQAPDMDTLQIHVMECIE
Description: Five million U266 cells/2.5 ml were treated with curcumin (50 μM) for the indicated times and cytoplasmic extracts were prepared. FIG. 3A: Level of phosphorylated IκBα determined by Western blotting. FIG. 3B: Immunoprecipitated IκB kinase and kinase assay of IκB kinase activity (upper panel) or Western blotting for the analysis of total IKKα and IKKβ proteins in cytoplasmic extracts (lower panel). FIG. 3C: IκB kinase was immunoprecipitated and kinase assay was performed in the absence or presence of the indicated concentrations of curcumin (upper panel). Lower panel indicates the amount of GST-IκBα protein stained with Coomassie Blue in each well in the same dried gel.
The IkB kinase assay was performed with a modified method as described earlier (Manna et al., 2000). Briefly, 200 μg cytoplasmic extracts were immunoprecipitated with 1 μg of anti-IKKa and IKKb antibodies each, and the immune complexes so formed were precipitated with 0.01 ml of protein A/G-Sepharose beads for 2 hour. The beads were washed first with lysis buffer and then with kinase assay buffer (50 mM HEPES pH 7.4, 20 mM MgCl2, and 2 mM DTT). The immune complex was then assayed for kinase activity using kinase assay buffer containing […] [g-P^32]ATP, 10 μM unlabeled ATP, and 2 μg/sample glutathione S-transferase-IkBa (1–54). […] Radioactive bands of the dried gel were visualized and quantitated by PhosphorImager. […]

[3] = system: p65 subunit of NF-κB; assay: Immunocytochemistry for NF-κB p65 localization in multiple myeloma cell lines; format: cell-based, human; conditions: all four multiple myeloma cell lines, curcumin 50 μM, 4 hours
Description: Red stain indicates the localization of p65 and blue stain (Hoechst) indicates nucleus (magnification 200×). […] U266 cells (2×10^6 cells/ml) were treated with indicated concentrations of NEMO-control or NBD-peptide (100 μM) for the indicated times. Nuclear extracts were then checked for the presence of NF-κB DNA-binding activity by EMSA. […] Untreated or NBD-peptide-treated (100 μM; 12 h) U266 cells were cytospun, and p65 immunocytochemistry was performed as described. Red stain indicates the localization of p65 and blue stain indicates nucleus (magnification 200×). […] U266 cells (2×10^6 cells/ml) were treated with indicated concentrations of NEMO-control or NBD-peptide (100 μM) for the indicated time periods, and cell viability was monitored by the trypan blue dye exclusion method. Percent cell killing was determined as: (number of trypan blue stained cells/total cells)×100. […] Stained slides were mounted with mounting medium (Sigma Colo.) and analyzed under an epifluorescence microscope (Labophot-2, Nikon, Tokyo, Japan). […] Cells with nuclear staining of NF-κB p65 or STAT3 were counted separately. One hundred cells were counted for each specimen, and the sample was graded on the basis of a 4-point scale: −, no nuclear positive cells (0%); +, low number of nuclear positive cells (<10%); ++, moderate number of nuclear positive cells (10–50%); +++, high number of nuclear positive cells (>50%).

[4] = system: STAT3; assay: Immunocytochemistry for STAT3 in bone marrow CD138+ cells from multiple myeloma patients; format: cell-based, human; conditions: patients #5, #9 and #10, 50 μM curcumin, 2 h (legend b30: 1 h)
Description: The cells were fixed on slides by cytospin centrifugation and immuno-stained for NF-κB or STAT3. Red stain indicates specific staining for NF-κB or STAT3, whereas blue stain indicates the relative position of the nuclei in the corresponding view.
Red stain indicates the specific staining for NF-κB or STAT3 as indicated, whereas blue stain indicates the relative position of the nuclei in the corresponding view.
Untreated or treated multiple myeloma cells were plated on a poly-L-lysine-coated glass slide by centrifugation using a Cytospin 4 (Thermoshendon, Pittsburg, Pa.), air-dried for 1 h at room temperature, and fixed with cold acetone. After a brief washing in PBS, slides were blocked with 5% normal goat serum for 1 h and then incubated either with rabbit polyclonal anti-human NF-κB p65 antibody (SC-109; dilution, 1:100) or with anti-human STAT3 antibody (SC-482; dilution, 1:100). After overnight incubation, the slides were washed and then incubated with goat anti-rabbit IgG-Alexa 594 (A-11037; dilution, 1:100) for 1 h and counter-stained for nuclei with Hoechst (50 ng/ml) for 5 min. Stained slides were mounted with mounting medium (Sigma Colo.) and analyzed under an epifluorescence microscope (Labophot-2, Nikon, Tokyo, Japan). […]

`COc1cc(/C=C/C(=O)CC(=O)/C=C/c2ccc(O)c(OC)c2)ccc1O` [curcumin, diferuloylmethane] was tested, and the suppression of growth/proliferation [1] was “completely suppressed the growth; also recorded: almost complete inhibition of proliferation”, the “direct inhibition of IκB kinase activity” value [2] was “inhibited IκB kinase activity directly in a dose-dependent manner” and the “nuclear translocation of p65” value [3] was “prevented the translocation of the p65 subunit of NF-κB to the nucleus”. For the same molecule, the “constitutive STAT3 activation (nuclear localization)” value [4] was “downregulated this transcripion factor”.
